Laboratory results reported in patent publication US9708639B2, “Method for quantifying amino acids with pyrophosphate” (TOYAMA PREFECTURE, priority 2012, dated 2017).

How the values were obtained:
Thermus-derived MetRS = biological target: T1, Thermus-derived MetRS (Thermus thermophilus, UniProt P23395); experiment: Qualitative test of AARS substrate specificity (AARS activity at 70° C.); type: biochemical, Thermus thermophilus HB8 strain; parameters: key: +: Activity was detected; −: Activity was not detected; settings: amino acids 200 μM, hydroxylamine 400 mM
T1 construct: host or cells: Escherichia coli BL21 (DE3)
T1 sequence (P23395 whole entry): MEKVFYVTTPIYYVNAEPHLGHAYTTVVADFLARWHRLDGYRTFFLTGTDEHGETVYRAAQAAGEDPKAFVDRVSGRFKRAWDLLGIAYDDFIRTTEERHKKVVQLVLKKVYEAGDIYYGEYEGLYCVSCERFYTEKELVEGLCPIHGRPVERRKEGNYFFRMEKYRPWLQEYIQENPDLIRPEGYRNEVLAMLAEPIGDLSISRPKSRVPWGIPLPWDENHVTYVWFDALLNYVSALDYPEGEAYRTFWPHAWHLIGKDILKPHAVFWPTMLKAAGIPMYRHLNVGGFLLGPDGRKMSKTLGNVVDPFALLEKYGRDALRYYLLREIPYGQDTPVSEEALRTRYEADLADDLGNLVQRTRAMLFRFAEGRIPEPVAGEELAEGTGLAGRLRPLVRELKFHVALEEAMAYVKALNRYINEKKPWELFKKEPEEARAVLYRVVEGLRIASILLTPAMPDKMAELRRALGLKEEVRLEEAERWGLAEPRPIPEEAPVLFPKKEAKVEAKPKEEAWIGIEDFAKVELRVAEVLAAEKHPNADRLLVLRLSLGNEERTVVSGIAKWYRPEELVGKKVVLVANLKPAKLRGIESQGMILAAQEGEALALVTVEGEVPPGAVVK
Experimental: (§1) A test sample containing an amino acid as the measurement subject and a reaction mixture for quantifying amino acid having the following composition were mixed. The mixture was left standing at 70° C. to allow the AARS reaction to advance. The mixture in a volume of 600 μl, 60 μl of a 1 M 2-mercaptoethanol solution, and 240 μl of the color development solution mentioned below were mixed, then the mixture was left standing at room temperature for 20 minutes, and the absorbance was measured at 580 nm in a cuvette having an optical path length of 1 cm.
(§2) Reaction mixture for quantifying amino acid: 20 mM HEPES-NaOH (pH 8.0), 5 mM MgCl2, 0.5 mM ATP, and AARS (concentrations are final concentrations obtained after mixing with test sample)
(§3) Color developing solution: A solution obtained by mixing water and concentrated sulfuric acid at a ratio of 6:1 and dissolving (NH4)6Mo7O24.4H2O in the mixture at a concentration of 0.025 g/ml
(§4) Presence or absence of pyrophosphate generation was verified for the Thermotoga-derived CysRS, HisRS, LysRS, ProRS, SerRS, TrpRS, and TyrRS by using the AARS activity measurement method described in 9. and standard solutions of the various amino acids as test samples. AARSs were added to the reaction mixture at final concentrations of 0.3 (8 mU/ml), 0.1, 0.2 (3 mU/ml), 0.2, 0.1 (1 mU/ml), 0.1, 0.2 (20 mU/ml) mg/ml, respectively. The reaction mixtures were prepared so that the final concentration of Tyr was 1 mM, and the final concentrations of the other amino acids were 5 mM. As for the hydroxylamine concentration, it was added at a final concentration of 1000 mM for all the cases. Further, presence or absence of pyrophosphate production was also verified for the Thermus-derived MetRS and TyrRS by using the AARS activity measurement method described in 10. and standard solutions of the various amino acids as test samples. The reaction mixtures were prepared so that the final concentrations of the amino acids were 200 μM. Hydroxylamine was added at a final concentration of 400 mM.
(§5) Detection or no detection of the activity in the reaction mixtures containing a combination of each AARS and amino acid are shown in Table 2. The symbol + indicates detection of the activity, and − indicates no detection of the activity.

Thermus-derived TyrRS = biological target: T2, Thermus-derived TyrRS (Thermus thermophilus, UniProt P83453); experiment: as above; type: biochemical, Thermus thermophilus HB8 strain; parameters: key: +: Activity was detected; −: Activity was not detected; settings: amino acids 200 μM, hydroxylamine 400 mM
T2 construct: host or cells: Escherichia coli BL21 (DE3)
T2 sequence (P83453 whole entry): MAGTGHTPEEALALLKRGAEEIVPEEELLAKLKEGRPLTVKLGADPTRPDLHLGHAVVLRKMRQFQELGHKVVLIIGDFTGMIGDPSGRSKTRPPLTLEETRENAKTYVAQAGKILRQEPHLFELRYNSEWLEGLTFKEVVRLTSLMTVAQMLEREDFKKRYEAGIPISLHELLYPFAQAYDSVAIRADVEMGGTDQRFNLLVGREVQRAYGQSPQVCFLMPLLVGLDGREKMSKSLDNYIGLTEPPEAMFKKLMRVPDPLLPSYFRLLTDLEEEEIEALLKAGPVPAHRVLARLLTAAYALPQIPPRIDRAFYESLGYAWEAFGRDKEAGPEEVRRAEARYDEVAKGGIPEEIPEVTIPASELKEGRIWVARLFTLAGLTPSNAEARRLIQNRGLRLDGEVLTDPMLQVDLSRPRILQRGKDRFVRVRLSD
Experimental: as §1, §2, §3, §4, §5

Thermotoga-derived LysRS = biological target: T3, Thermotoga-derived LysRS (Thermotoga maritima, UniProt Q9X231); experiment: Calibration curve for amino acid by coupled PPDK and LDH; type: biochemical, Thermotoga maritima MSB8 strain; settings: Lys 0 to 200 μM; hydroxylamine 1000 mM; LysRS 0.1 mg/ml (10 mU/ml); 30° C.
T3 construct: His tag (C); made in house; host or cells: Escherichia coli BL21 (DE3)
T3 sequence (Q9X231 1-502): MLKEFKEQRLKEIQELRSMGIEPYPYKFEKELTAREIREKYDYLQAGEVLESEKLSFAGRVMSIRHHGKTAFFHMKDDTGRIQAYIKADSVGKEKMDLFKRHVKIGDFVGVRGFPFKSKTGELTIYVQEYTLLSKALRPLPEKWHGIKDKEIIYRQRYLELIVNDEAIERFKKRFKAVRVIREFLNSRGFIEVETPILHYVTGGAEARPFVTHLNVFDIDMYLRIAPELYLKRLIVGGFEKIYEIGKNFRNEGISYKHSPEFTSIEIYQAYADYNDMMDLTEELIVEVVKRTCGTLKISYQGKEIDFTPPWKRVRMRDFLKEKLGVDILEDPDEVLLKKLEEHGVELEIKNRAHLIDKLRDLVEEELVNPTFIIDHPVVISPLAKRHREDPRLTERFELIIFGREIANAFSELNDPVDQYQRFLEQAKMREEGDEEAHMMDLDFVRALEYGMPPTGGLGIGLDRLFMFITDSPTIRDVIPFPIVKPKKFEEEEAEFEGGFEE
Experimental: A test sample containing an amino acid as the measurement subject and a reaction mixture for quantifying amino acid having the following composition were mixed. The mixture was left standing at 30° C. to allow the AARS, PPDK, and LDH reactions to advance, and decrease of the absorbance at 340 nm was measured. The volume of the mixture was 200 μl, and after the reaction mixture was put into the wells of a 96-well microplate, the absorbance was measured with a microplate reader.
Reaction mixture for quantifying amino acid: 20 mM Tris-HCl (pH 7.0), 10 mM MgCl2, 10 mM NH4Cl, 0.3 mM PEP, 0.3 mM NADH, 0.2 mM ATP, 0.2 mM AMP, 70 mU/ml PPDK, 50 U/ml LDH, and AARS (concentrations are final concentrations obtained after mixing with test sample)
Calibration curves were prepared by using the AARS activity measurement method described in 8. and standard Cys, Lys, Ser, and Tyr solutions as test samples. The concentrations of the aforementioned amino acids were set so that the final concentrations thereof are in the range of 0 to 200 μM. The hydroxylamine concentration was 200 mM for the samples used for the Tyr calibration curve, or 1000 mM for the samples used for the Cys, Lys, and Ser calibration curves. The Thermotoga-derived CysRS, LysRS, SerRS, TyrRS, and the Thermus-derived TyrRS were added to the reaction mixture at final concentrations of 0.2 (7 mU/ml), 0.1 (10 mU/ml), 0.2 (8 mU/ml), 0.4 (40 mU/ml), and 0.1 mg/ml, respectively.
Calibration curves could be similarly prepared when adding pyrophosphate instead of the aforementioned amino acids, but the inclinations of the Lys, Ser, and Tyr calibration curves (absorbance change per mM of substrate) were 80% or more of the inclination of the pyrophosphate calibration curve. […] The inclination of the Cys calibration curve was slightly smaller than those of the other calibration curves, and it is considered that this is because a part of cysteine in the test sample was converted into cystine by air oxidation, and the real concentration of cysteine was reduced.

Row | Compound | Detection of the activity (pyrophosphate production), MetRS (Thermus) (Thermus-derived MetRS) | Detection of the activity (pyrophosphate production), TyrRS (Thermus) (Thermus-derived TyrRS) | inclination of calibration curve relative to inclination of the pyrophosphate calibration curve (Thermotoga-derived LysRS)
1 | C[C@H](N)C(=O)O [Ala, L-alanine] | − | − | 
2 | N=C(N)NCCC[C@H](N)C(=O)O [Arg, L-arginine] | − | − | 
3 | NC(=O)C[C@H](N)C(=O)O [Asn, L-asparagine] | − | − | 
4 | N[C@@H](CC(=O)O)C(=O)O [Asp, L-aspartic acid] | − | − | 
5 | N[C@@H](CS)C(=O)O [Cys, L-cysteine] | − | − | 
6 | NC(=O)CC[C@H](N)C(=O)O [Gln, L-glutamine] | − | − | 
7 | N[C@@H](CCC(=O)O)C(=O)O [Glu, L-glutamic acid] | − | − | 
8 | NCC(=O)O [Gly, glycine] | − | − | 
9 | N[C@@H](Cc1c[nH]cn1)C(=O)O [His, L-histidine] | − | − | 
10 | CC[C@H](C)[C@H](N)C(=O)O [Ile, L-isoleucine] | − | − | 
11 | CC(C)C[C@H](N)C(=O)O [Leu, L-leucine] | − | − | 
12 | NCCCC[C@H](N)C(=O)O [Lys, L-lysine] | − | − | ≥ 80%
13 | CSCC[C@H](N)C(=O)O [Met, L-methionine] | + | − | 
14 | N[C@@H](Cc1ccccc1)C(=O)O [Phe, L-phenylalanine] | − | − | 
15 | O=C(O)[C@@H]1CCCN1 [Pro, L-proline] | − | − | 
16 | N[C@@H](CO)C(=O)O [Ser, L-serine] | − | − | 
17 | C[C@@H](O)[C@H](N)C(=O)O [Thr, L-threonine] | − | − | 
18 | N[C@@H](Cc1c[nH]c2ccccc12)C(=O)O [Trp, L-tryptophan] | − | − | 
19 | N[C@@H](Cc1ccc(O)cc1)C(=O)O [Tyr, L-tyrosine] | − | + | 
20 | CC(C)[C@H](N)C(=O)O [Val, L-valine] | − | − | 
